Measurements as given in the supplement of paper PMC10307832.

Columns and labels:
Assay in all cases: relative viability (nuclei count vs DMSO), 5 days (fraction); higher = more cells survive
[1] = compound: Cc1cc(Nc2cc(N3CCN(C)CC3)nc(Sc3ccc(NC(=O)C4CC4)cc3)n2)n[nH]1 [Tozasertib] + N=C(N)NC(=N)NCCc1ccccc1 [Phenformin] (partner 250 µM)
Summary of the method: (§1)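 Lung cancer cell lines in 1536-well plates got either a single drug or a fixed anchor-drug dose together with five library-drug doses (not always all listed) in √10 steps, by pin tool, on the day after seeding. Nuclei were counted after 5 days, and relative viability is the treated-to-vehicle ratio of nuclei counts. Values are medians of duplicate plates.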

[2] = compound: Cc1cc(Nc2cc(N3CCN(C)CC3)nc(Sc3ccc(NC(=O)C4CC4)cc3)n2)n[nH]1 [Tozasertib] + Cc1nc(Nc2ncc(C(=O)Nc3c(C)cccc3Cl)s2)cc(N2CCN(CCO)CC2)n1 [Dasatinib] (partner 0.075 µM)
Summary of the method: as §1

[3] = compound: Cc1cc(Nc2cc(N3CCN(C)CC3)nc(Sc3ccc(NC(=O)C4CC4)cc3)n2)n[nH]1 [Tozasertib] + CCNC(=O)c1noc(-c2cc(C(C)C)c(O)cc2O)c1-c1ccc(CN2CCOCC2)cc1 [Luminespib] (partner 0.01 µM)
Summary of the method: as §1

[4] = compound: Cc1cc(Nc2cc(N3CCN(C)CC3)nc(Sc3ccc(NC(=O)C4CC4)cc3)n2)n[nH]1 [Tozasertib] + Nc1ncn([C@H]2C[C@H](O)[C@@H](CO)O2)c(=O)n1 [Decitabine] (partner 2 µM)
Summary of the method: as §1

[5] = compound: Cc1cc(Nc2cc(N3CCN(C)CC3)nc(Sc3ccc(NC(=O)C4CC4)cc3)n2)n[nH]1 [Tozasertib] + O=C(c1cc(Cc2n[nH]c(=O)c3ccccc23)ccc1F)N1CCN(C(=O)C2CC2)CC1 [Olaparib] (partner 8 µM)
Summary of the method: as §1

| Cell Line | relative viability ([1]; first compound 0.004 µM) | relative viability ([1]; first compound 0.01265 µM) | relative viability ([1]; first compound 0.04 µM) | relative viability ([1]; first compound 0.1265 µM) | relative viability ([2]; first compound 0.004 µM) | relative viability ([2]; first compound 0.01265 µM) | relative viability ([2]; first compound 0.04 µM) | relative viability ([2]; first compound 0.1265 µM) | relative viability ([3]; first compound 0.004 µM) | relative viability ([3]; first compound 0.01265 µM) | relative viability ([3]; first compound 0.04 µM) | relative viability ([3]; first compound 0.1265 µM) | relative viability ([4]; first compound 0.004 µM) | relative viability ([4]; first compound 0.01265 µM) | relative viability ([4]; first compound 0.04 µM) | relative viability ([4]; first compound 0.1265 µM) | relative viability ([5]; first compound 0.004 µM) | relative viability ([5]; first compound 0.01265 µM) | relative viability ([5]; first compound 0.04 µM) | relative viability ([5]; first compound 0.1265 µM) |
| --- | --- | --- | --- | --- | --- | --- | --- | --- | --- | --- | --- | --- | --- | --- | --- | --- | --- | --- | --- | --- |
| NCI-H1437 | 0.312 | 0.301 | 0.297 | 0.2 | 0.453 | 0.254 | 0.372 | 0.434 | 1.19 | 1.1 | 1.09 | 1.03 | 0.614 | 0.49 | 0.584 | 0.359 | 0.66 | 0.58 | 0.595 | 0.541 |
| H3255 | 0.291 | 0.396 | 0.379 | 0.353 | 0.37 | 0.409 | 0.339 | 0.304 | 0.753 | 0.67 | 1.02 | 0.879 | 0.71 | 0.475 | 0.592 | 0.558 | 0.554 | 0.564 | 0.602 | 0.503 |
| ABC-1 | 0.218 | 0.202 | 0.261 | 0.172 | 0.494 | 0.535 | 0.577 | 0.258 | 0.521 | 0.638 | 0.402 | 0.686 | 0.989 | 1.03 | 0.539 | 0.44 | 0.832 | 0.704 | 0.394 | 0.613 |
| CAL-12T | 0.669 | 0.499 | 0.529 | 0.272 | 0.434 | 0.332 | 0.404 | 0.151 | 0.288 | 0.405 | 0.58 | 0.368 |  |  |  |  |  | 0.741 | 0.769 | 0.55 |
| LCLC-97TM1 | 0.438 | 0.437 | 0.459 | 0.407 | 0.809 | 0.695 | 0.948 | 0.783 | 0.895 |  | 0.724 | 0.615 | 0.222 | 0.232 | 0.235 | 0.185 | 0.53 | 0.381 | 0.335 | 0.231 |
| EMC-BAC-2 | 0.486 | 0.513 | 0.518 | 0.357 | 0.314 | 0.321 | 0.342 | 0.259 | 1.15 | 1.11 | 1.3 | 0.827 | 0.977 | 0.86 | 0.918 | 0.58 | 0.511 | 0.437 | 0.414 | 0.366 |
| NCI-H522 | 0.687 | 0.62 | 0.676 | 0.593 | 0.836 | 1.12 | 1.01 | 0.725 | 1.36 | 1.48 | 1 | 0.896 | 0.655 | 0.746 | 0.647 | 0.622 | 0.619 |  | 0.603 | 0.531 |
| LXF-289 | 0.589 | 0.511 | 0.507 | 0.383 | 0.226 | 0.198 | 0.232 | 0.0943 | 0.573 | 0.51 | 0.664 | 0.399 | 0.378 | 0.405 | 0.337 | 0.262 | 1.08 | 0.942 | 0.792 | 0.644 |
| NCI-H2085 | 0.759 | 0.744 | 0.731 |  | 0.235 | 0.231 | 0.244 | 0.228 | 0.473 | 0.428 | 0.442 | 0.457 | 0.578 | 0.508 | 0.538 | 0.485 | 0.82 | 0.752 | 0.782 | 0.711 |
| NCI-H647 | 0.687 | 0.526 | 0.602 | 0.177 | 0.204 | 0.185 | 0.181 | 0.0838 | 0.24 | 0.152 | 0.186 | 0.194 | 0.43 | 0.402 | 0.322 | 0.25 | 0.744 | 0.445 | 0.501 | 0.369 |
| NCI-H2023 | 0.393 | 0.393 | 0.407 | 0.258 | 0.562 | 0.506 | 0.572 | 0.318 | 0.811 | 0.749 | 0.9 | 0.598 | 0.223 | 0.237 | 0.217 | 0.169 | 0.486 | 0.459 | 0.553 | 0.342 |
| UMC-11 | 0.372 | 0.308 | 0.3 | 0.171 | 0.495 | 0.545 | 0.521 | 0.161 | 1.02 | 0.983 |  | 0.422 | 0.597 | 0.499 | 0.548 | 0.189 | 0.367 | 0.47 | 0.362 | 0.257 |
| HCC-44 | 0.184 | 0.251 | 0.184 | 0.104 |  |  |  |  | 1.04 | 0.829 | 0.565 | 0.796 | 0.935 | 0.917 | 0.87 | 0.766 | 0.961 | 0.924 | 1.02 | 0.914 |
| HCC-366 | 0.629 | 0.56 | 0.661 | 0.651 | 0.612 | 0.682 | 0.677 | 0.629 |  |  |  |  | 0.32 | 0.314 | 0.314 | 0.169 | 0.333 | 0.333 | 0.312 | 0.127 |
| NCI-H1703 |  |  |  |  |  |  |  |  |  |  |  |  |  |  |  |  | 0.492 | 0.391 | 0.476 | 0.45 |
| NCI-H1563 | 0.704 | 0.668 | 0.721 | 0.573 | 0.567 | 0.481 | 0.541 | 0.453 | 0.48 | 0.635 | 0.484 | 0.48 |  |  |  |  |  |  |  |  |
| A549 | 0.117 | 0.161 | 0.169 | 0.0581 |  |  |  |  |  |  |  |  | 0.27 | 0.266 | 0.282 | 0.199 | 0.2 | 0.324 | 0.313 | 0.13 |
| HCC-78 | 0.957 | 0.608 | 0.699 | 0.525 | 0.541 | 0.316 | 0.469 | 0.322 |  |  |  |  | 0.746 | 0.598 | 0.763 | 0.595 | 0.885 | 0.705 | 0.98 | 0.758 |
| NCI-H2228 | 0.375 | 0.298 | 0.254 | 0.132 | 0.493 | 0.493 | 0.546 | 0.232 | 0.216 | 0.167 | 0.204 | 0.167 |  |  |  |  | 0.616 | 0.511 | 0.622 | 0.366 |
